Consider 28 compounds from patent publication US8471005B2 (Cephalon, Inc., priority 2008, dated 2013).

The target in one assay is T1, ALK (Homo sapiens, UniProt Q9UM73).
T1 construct: host or cells: baculovirus expression system
The experiment in a line: ALK Kinase Assay (ELISA/TRF, PLC-γ substrate). In kind it is biochemical. The following applies: read-out: ALK Potency. The method in brief: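 IC50 values derive from percent inhibition plotted against log10 compound concentration and fitted to a variable-slope sigmoidal equation. The underlying reaction used 30 ng/ml ALK acting on immobilized PLC-γ (10 μg/mL in TBS) at 37° C for 15 minutes, read with Eu-N1 PT66 antibody.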
(In an ELISA, binding on a coated surface is turned into a signal by an enzyme label.)

The next assay concerns the target T2, JAK2 (Homo sapiens, UniProt O60674).
T2 construct: host or cells: baculovirus expression system
The assay is described as follows: Recombinant Human JAK2 Kinase Assay (TRF). The format is biochemical. Conditions: read-out: JAK2 Potency. The method in brief: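 Baculovirus-expressed JAK2 (15 ng/ml) phosphorylated a biotinylated 15-mer peptide captured on Neutravidin-coated plates, in 20 mM HEPES pH 7.2 with 0.2 μM ATP, 1 mM MnCl2, 0.1% BSA and 2.5% DMSO. Reaction ran 20 min at room temperature; phosphopeptide was detected by time-resolved fluorescence with Eu-N1-labelled PY100 antibody.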

Setting [1] is: ALK kinase inhibition, 1 μM ATP.
Setting [2] is: JAK2 kinase inhibition, 0.2 μM ATP.

Where two headings read alike, the source gives them in different places. Where only a bound is given, the exact number is not on record here.

T2 sequence (O60674 whole entry): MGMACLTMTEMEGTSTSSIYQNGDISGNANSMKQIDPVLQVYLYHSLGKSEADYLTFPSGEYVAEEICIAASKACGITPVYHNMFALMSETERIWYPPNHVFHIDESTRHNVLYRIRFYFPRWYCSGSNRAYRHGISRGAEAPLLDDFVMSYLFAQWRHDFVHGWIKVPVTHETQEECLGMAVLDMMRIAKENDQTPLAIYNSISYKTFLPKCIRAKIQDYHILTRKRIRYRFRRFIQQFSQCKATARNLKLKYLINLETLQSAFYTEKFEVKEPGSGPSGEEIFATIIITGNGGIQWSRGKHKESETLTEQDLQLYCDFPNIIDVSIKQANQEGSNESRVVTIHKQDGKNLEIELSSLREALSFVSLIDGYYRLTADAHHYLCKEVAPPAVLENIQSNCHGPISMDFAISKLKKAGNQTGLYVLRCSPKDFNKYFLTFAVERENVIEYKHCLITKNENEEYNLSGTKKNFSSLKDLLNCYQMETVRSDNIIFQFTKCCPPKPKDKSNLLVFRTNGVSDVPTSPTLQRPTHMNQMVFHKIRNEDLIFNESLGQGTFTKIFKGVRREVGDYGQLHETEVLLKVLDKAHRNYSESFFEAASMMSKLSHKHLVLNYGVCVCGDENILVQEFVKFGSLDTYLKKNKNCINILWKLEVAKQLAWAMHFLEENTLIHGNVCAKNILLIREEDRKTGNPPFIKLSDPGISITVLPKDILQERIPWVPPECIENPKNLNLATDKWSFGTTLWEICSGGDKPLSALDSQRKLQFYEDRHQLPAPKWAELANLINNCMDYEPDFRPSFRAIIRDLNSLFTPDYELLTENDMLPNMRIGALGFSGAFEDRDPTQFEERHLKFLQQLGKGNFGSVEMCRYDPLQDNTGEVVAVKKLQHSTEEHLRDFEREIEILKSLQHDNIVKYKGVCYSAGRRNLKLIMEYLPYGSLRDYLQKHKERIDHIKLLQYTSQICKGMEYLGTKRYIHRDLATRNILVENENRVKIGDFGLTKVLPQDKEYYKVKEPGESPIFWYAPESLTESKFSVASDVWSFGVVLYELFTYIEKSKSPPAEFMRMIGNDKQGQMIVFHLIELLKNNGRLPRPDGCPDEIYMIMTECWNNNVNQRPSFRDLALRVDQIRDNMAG
T1 sequence (Q9UM73 19-1620): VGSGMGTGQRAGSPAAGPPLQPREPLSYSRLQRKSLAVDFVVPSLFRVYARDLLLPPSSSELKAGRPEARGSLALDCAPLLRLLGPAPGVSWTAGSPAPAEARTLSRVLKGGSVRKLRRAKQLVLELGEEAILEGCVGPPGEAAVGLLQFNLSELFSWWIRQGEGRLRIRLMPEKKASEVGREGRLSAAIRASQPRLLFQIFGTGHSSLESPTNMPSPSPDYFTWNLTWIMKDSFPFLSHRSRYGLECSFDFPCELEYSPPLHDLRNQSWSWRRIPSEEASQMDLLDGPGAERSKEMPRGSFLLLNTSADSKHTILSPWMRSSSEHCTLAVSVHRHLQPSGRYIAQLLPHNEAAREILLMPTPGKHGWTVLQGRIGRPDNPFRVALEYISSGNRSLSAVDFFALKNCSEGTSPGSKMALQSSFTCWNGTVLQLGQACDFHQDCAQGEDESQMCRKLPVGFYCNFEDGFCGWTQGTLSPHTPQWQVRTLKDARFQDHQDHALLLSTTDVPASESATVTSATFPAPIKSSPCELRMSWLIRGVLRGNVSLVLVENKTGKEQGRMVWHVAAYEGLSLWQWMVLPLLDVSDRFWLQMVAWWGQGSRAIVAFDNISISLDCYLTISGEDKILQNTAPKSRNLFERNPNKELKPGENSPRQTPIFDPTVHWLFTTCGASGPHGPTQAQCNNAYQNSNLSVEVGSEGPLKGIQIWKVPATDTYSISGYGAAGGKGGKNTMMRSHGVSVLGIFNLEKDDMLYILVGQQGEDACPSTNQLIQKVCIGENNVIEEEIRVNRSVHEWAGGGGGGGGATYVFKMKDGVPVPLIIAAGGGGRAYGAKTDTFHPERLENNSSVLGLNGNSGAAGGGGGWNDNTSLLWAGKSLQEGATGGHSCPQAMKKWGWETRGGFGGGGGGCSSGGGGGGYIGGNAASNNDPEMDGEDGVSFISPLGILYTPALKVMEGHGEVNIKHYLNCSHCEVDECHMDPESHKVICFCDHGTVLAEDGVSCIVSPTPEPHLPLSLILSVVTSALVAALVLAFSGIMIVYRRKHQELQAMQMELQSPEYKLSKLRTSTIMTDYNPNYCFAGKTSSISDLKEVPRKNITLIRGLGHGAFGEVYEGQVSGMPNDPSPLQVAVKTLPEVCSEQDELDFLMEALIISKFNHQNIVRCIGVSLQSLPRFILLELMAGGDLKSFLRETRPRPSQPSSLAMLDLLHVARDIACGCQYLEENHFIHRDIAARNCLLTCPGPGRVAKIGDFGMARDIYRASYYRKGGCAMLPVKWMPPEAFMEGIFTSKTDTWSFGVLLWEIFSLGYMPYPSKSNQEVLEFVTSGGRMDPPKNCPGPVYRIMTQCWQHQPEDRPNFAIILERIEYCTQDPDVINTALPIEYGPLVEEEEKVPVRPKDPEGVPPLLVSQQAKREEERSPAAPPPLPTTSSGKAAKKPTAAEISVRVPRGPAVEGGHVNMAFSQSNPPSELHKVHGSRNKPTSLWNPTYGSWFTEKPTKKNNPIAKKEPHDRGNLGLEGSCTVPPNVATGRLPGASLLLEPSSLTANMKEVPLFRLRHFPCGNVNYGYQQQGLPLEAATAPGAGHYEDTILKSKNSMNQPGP

Take `COc1ccc(-c2ccc3cnc(Nc4ccc(C(=O)N5CCN(C)CC5)cc4)nn23)cn1` [Example 1420, {4-[7-(6-Methoxy-pyridin-3-yl)-pyrrolo[2,1-f][1,2,4]triazin-2-ylamino]-phenyl}-(4-methyl-piperazin-1-yl)-methanone]: the IC50 on ALK (ALK Kinase Inhibition) was 1000 to 10000 nM; at JAK2 (JAK2 Kinase Inhibition) it was less than 100 nM.

As to `COc1ccc(Cl)cc1-c1ccc2cnc(Nc3ccc(N4CCN(C[C@@H](C)O)CC4)cc3)nn12` [Example 207, (R)-1-(4-{4-[7-(5-Chloro-2-methoxy-phenyl)-pyrrolo[2,1-f][1,2,4]triazin-2-ylamino]-phenyl}-piperazin-1-yl)-propan-2-ol], the IC50 on ALK (ALK Kinase Inhibition) and at JAK2 (JAK2 Kinase Inhibition) was less than 100 nM each time.

Take `COC(=O)c1cccc(-c2ccc3cnc(Nc4ccc(N5CCOCC5)cc4)nn23)c1` [Example 6, 3-[2-(4-Morpholin-4-yl-phenylamino)-pyrrolo[2,1-f][1,2,4]triazin-7-yl]-benzoic acid methyl ester]: the figures for the IC50 on ALK (ALK Kinase Inhibition) and at JAK2 (JAK2 Kinase Inhibition) were more than 10000 nM and less than 100 nM, respectively.

Take `COc1cc([C@@H]2CCNC[C@@H]2O)ccc1Nc1ncc2ccc(-c3ccccc3N(C)S(C)(=O)=O)n2n1` (racemic) [Example 841, (±)-N-(2-{2-[4-((3R,4S)-3-Hydroxy-piperidin-4-yl)-2-methoxy-phenylamino]-pyrrolo[2,1-f][1,2,4]triazin-7-yl}-phenyl)-N-methyl-methanesulfonamide]: the IC50 on ALK (setting [1]) is less than 100 nM; at JAK2 (setting [2]), 1000 to 10000 nM.

Take `COc1ccccc1-c1ccc2cnc(Nc3ccc(C4CCN(CC(N)=O)CC4)c(C)c3)nn12` [Example 935, 2-(4-{4-[7-(2-Methoxy-phenyl)-pyrrolo[2,1-f][1,2,4]triazin-2-ylamino]-2-methyl-phenyl}-piperidin-1-yl)-acetamide]: the IC50 at ALK (setting [1]) and on JAK2 (setting [2]) was less than 100 nM in each case.

Take `COc1ccccc1-c1cc(O)c2cnc(Nc3ccc(C4CCN(CC(N)=O)CC4)cc3)nn12` [Example 1260, 2-(4-{4-[5-Hydroxy-7-(2-methoxy-phenyl)-pyrrolo[2,1-f][1,2,4]triazin-2-ylamino]-phenyl}-piperidin-1-yl)-acetamide]: the IC50 is 100 to 1000 nM at ALK (setting [1]) and less than 100 nM at JAK2 (setting [2]).

On to `COc1cc(N2CCC(N3CCOCC3)CC2)ccc1Nc1ncc2ccc(-c3cccnc3)n2n1` [Example 1170, [2-Methoxy-4-(4-morpholin-4-yl-piperidin-1-yl)-phenyl]-(7-pyridin-3-yl-pyrrolo[2,1-f][1,2,4]triazin-2-yl)-amine], for which the IC50 on ALK (setting [1]) is 100 to 1000 nM; on JAK2 (setting [2]), less than 100 nM.

For `CN1CCC(c2ccc(Nc3ncc4ccc(-c5cccc(S(=O)(=O)N6CCCC6)c5)n4n3)cc2)CC1` [Example 903, [4-(1-Methyl-piperidin-4-yl)-phenyl]-{7-[3-(pyrrolidine-1-sulfonyl)-phenyl]-pyrrolo[2,1-f][1,2,4]triazin-2-yl}-amine], the IC50 at ALK (setting [1]) was 100 to 1000 nM; at JAK2 (setting [2]) it was less than 100 nM.

Regarding `COc1cc(C2CCCN(C)C2)ccc1Nc1ncc2ccc(-c3ccccc3N(C)S(C)(=O)=O)n2n1` (centres unmarked) [Example 806, N-(2-{2-[2-Methoxy-4-(1-methyl-piperidin-3-yl)-phenylamino]-pyrrolo[2,1-f][1,2,4]triazin-7-yl}-phenyl)-N-methyl-methanesulfonamide], the IC50 on ALK (setting [1]) was less than 100 nM; on JAK2 (setting [2]), 100 to 1000 nM.

As to `COc1ccccc1-c1ccc2cnc(Nc3ccc(C4=CCN(CC(N)=O)CC4)c(C(F)(F)F)c3)nn12` [Example 952, 2-(4-{4-[7-(2-Methoxy-phenyl)-pyrrolo[2,1-f][1,2,4]triazin-2-ylamino]-2-trifluoromethyl-phenyl}-3,6-dihydro-2H-pyridin-1-yl)-acetamide], the results for the IC50 on ALK (setting [1]) and on JAK2 (setting [2]) were 100 to 1000 nM and less than 100 nM, respectively.

Regarding `COc1cc(C2CCN(Cc3ncc[nH]3)CC2)ccc1Nc1ncc2ccc(-c3ccccc3OC)n2n1` [Example 868, {4-[1-(1H-Imidazol-2-ylmethyl)-piperidin-4-yl]-2-methoxy-phenyl}-[7-(2-methoxy-phenyl)-pyrrolo[2,1-f][1,2,4]triazin-2-yl]-amine], the IC50 is less than 100 nM on ALK (setting [1]) and 100 to 1000 nM on JAK2 (setting [2]).

As for “N-{2-tert-Butyl-5-[7-(5-chloro-2-methoxy-phenyl)-pyrrolo[2,1-f][1,2,4]triazin-2-ylamino]-phenyl}-acetamide [Example 305]”, the values for the IC50 at ALK (ALK Kinase Inhibition) and on JAK2 (JAK2 Kinase Inhibition) were 100 to 1000 nM and less than 100 nM, respectively.

As for `CS(=O)(=O)c1ccc(-c2ccc3cnc(Nc4ccc(N5CCC(CO)CC5)cc4)nn23)cc1` [Example 87, (1-{4-[7-(4-Methanesulfonyl-phenyl)-pyrrolo[2,1-f][1,2,4]triazin-2-ylamino]-phenyl}-piperidin-4-yl)-methanol], the IC50 is 1000 to 10000 nM on ALK (ALK Kinase Inhibition) and less than 100 nM on JAK2 (JAK2 Kinase Inhibition).

Take `CN1CCN(C)C(c2ccc(Nc3ncc4ccc(-c5cccc(S(=O)(=O)NC(C)(C)C)c5)n4n3)cc2)C1=O` (centres unmarked) [Example 1074, N-tert-Butyl-3-{2-[4-(1,4-dimethyl-3-oxo-piperazin-2-yl)-phenylamino]-pyrrolo[2,1-f][1,2,4]triazin-7-yl}-benzene sulfonamide]: the IC50 was 1000 to 10000 nM on ALK (setting [1]) and less than 100 nM at JAK2 (setting [2]).

With `COc1cc(C2CCN(CC(N)=O)CC2)ccc1Nc1ncc2ccc(-c3cccnc3N(C)S(C)(=O)=O)n2n1` [Example 1257, 2-[4-(4-{7-[2-(Methanesulfonyl-methyl-amino)-pyridin-3-yl]-pyrrolo[2,1-f][1,2,4]triazin-2-ylamino}-3-methoxy-phenyl)-piperidin-1-yl]-acetamide], the IC50 at ALK (setting [1]) is less than 100 nM; on JAK2 (setting [2]) it was 1000 to 10000 nM.

On to `COc1cc(N2CCCC(N3CCOCC3)C2)ccc1Nc1ncc2ccc(-c3ccccc3OC)n2n1` (centres unmarked) [Example 1444, [2-Methoxy-4-(3-morpholin-4-yl-piperidin-1-yl)-phenyl]-[7-(2-methoxy-phenyl)-pyrrolo[2,1-f][1,2,4]triazin-2-yl]-amine], for which the IC50 on ALK (ALK Kinase Inhibition) is less than 100 nM; at JAK2 (JAK2 Kinase Inhibition) it was 100 to 1000 nM.

Turning to `COc1ccccc1NCc1ccc2cnc(Nc3ccc(N4CCOCC4)cc3)nn12` [Example 364, {7-[(2-Methoxy-phenylamino)-methyl]-pyrrolo[2,1-f][1,2,4]triazin-2-yl}-(4-morpholin-4-yl-phenyl)-amine], the IC50 on ALK (ALK Kinase Inhibition) was more than 10000 nM; at JAK2 (JAK2 Kinase Inhibition), less than 100 nM.

With `O=S1(=O)CCCN1c1cccc(-c2ccc3cnc(Nc4cccc(-n5cccn5)c4)nn23)c1` [Example 1506, 7-[3-(1,1-Dioxido-1,2-thiazolidin-2-yl)phenyl]-N-[3-(1H-pyrazol-1-yl)phenyl]pyrrolo[2,1-f][1,2,4]triazin-2-amine], the IC50 at ALK (ALK Kinase Inhibition) was more than 10000 nM; at JAK2 (JAK2 Kinase Inhibition), less than 100 nM.

On to `CC(C)(C)NS(=O)(=O)c1cccc(-c2ccc3cnc(Nc4ccc(CN5CCCC5)cc4)nn23)c1` [Example 1429, N-tert-Butyl-3-[2-(4-pyrrolidin-1-ylmethyl-phenylamino)-pyrrolo[2,1-f][1,2,4]triazin-7-yl]-benzenesulfonamide], for which the IC50 is 100 to 1000 nM on ALK (ALK Kinase Inhibition) and less than 100 nM on JAK2 (JAK2 Kinase Inhibition).

On to `COc1ccc(Cl)cc1-c1ccc2cnc(Nc3cc(OC)c(OC)c(OC)c3)nn12` [Example 141, [7-(5-Chloro-2-methoxy-phenyl)-pyrrolo[2,1-f][1,2,4]triazin-2-yl]-(3,4,5-trimethoxy-phenyl)-amine], for which the values for the IC50 on ALK (ALK Kinase Inhibition) and at JAK2 (JAK2 Kinase Inhibition) were 100 to 1000 nM and less than 100 nM, respectively.

Turning to `COc1ccccc1-c1ccc2cnc(Nc3ccc(C4CCN(C)CC4)cc3)nn12` [Example 1132, [7-(2-Methoxy-phenyl)-pyrrolo[2,1-f][1,2,4]triazin-2-yl]-[4-(1-methyl-piperidin-4-yl)-phenyl]-amine], the IC50 on ALK (setting [1]) and on JAK2 (setting [2]) was less than 100 nM each time.

Regarding `COc1cc(CN2CCN(C)CC2)ccc1Nc1ncc2ccc(-c3ccccc3OC)n2n1` [Example 1252, [2-Methoxy-4-(4-methyl-piperazin-1-ylmethyl)-phenyl]-[7-(2-methoxy-phenyl)-pyrrolo[2,1-f][1,2,4]triazin-2-yl]-amine], the IC50 was less than 100 nM on ALK (setting [1]) and 100 to 1000 nM on JAK2 (setting [2]).

`COc1cc(N2CCC(C)(N3CCOCC3)CC2)ccc1Nc1ncc2ccc(-c3ccccc3OC)n2n1` [Example 1467]: the IC50 on ALK (ALK Kinase Inhibition) and at JAK2 (JAK2 Kinase Inhibition) was less than 100 nM each time.

In the case of `O=S(=O)(CC1CC1)c1cccc(-c2ccc3cnc(Nc4ccc5[nH]ncc5c4)nn23)c1` [Example 1314], the IC50 at ALK (setting [1]) was 1000 to 10000 nM; at JAK2 (setting [2]), less than 100 nM.

With `CS(=O)(=O)Nc1cccc(-c2ccc3cnc(Nc4ccn(CCN5CCOCC5)n4)nn23)c1` [Example 1185, N-(3-{2-[1-(2-Morpholin-4-yl-ethyl)-1H-pyrazol-3-ylamino]-pyrrolo[2,1-f][1,2,4]triazin-7-yl}-phenyl)-methanesulfonamide], the IC50 at ALK (setting [1]) was 1000 to 10000 nM; at JAK2 (setting [2]) it was less than 100 nM.

As to “[7-(4-Methanesulfonyl-phenyl)-pyrrolo[2,1-f][1,2,4]triazin-2-yl]-(4-morpholin-4-yl-phenyl)-amine [Example 38]”, the IC50 at ALK (ALK Kinase Inhibition) is 100 to 1000 nM; on JAK2 (JAK2 Kinase Inhibition) it was less than 100 nM.

For `COc1ccccc1-c1ccc2cnc(Nc3ccc(C4CN(CC(N)=O)C4)cc3)nn12` [Example 583, 2-(3-{4-[7-(2-Methoxy-phenyl)-pyrrolo[2,1-f][1,2,4]triazin-2-ylamino]-phenyl}-azetidin-1-yl)-acetamide], the IC50 is 100 to 1000 nM at ALK (setting [1]) and less than 100 nM on JAK2 (setting [2]).

For `CN1CCC2(CCc3cc(Nc4ncc5ccc(-c6cccc(NS(C)(=O)=O)c6)n5n4)ccc3O2)CC1` [Example 378], the IC50 at ALK (ALK Kinase Inhibition) and on JAK2 (JAK2 Kinase Inhibition) was less than 100 nM throughout.
